Source: PubChem BioAssay AID248 (DTP/NCI, 2004)
Where “and” joins values, the source holds several entries; their conditions need not be identical. Equal values may be shown once. Inconclusive results and toxic doses are left out.

System: L1210 leukemia ip in BDF1 mice, survival T/C
Assay: NCI In Vivo Anticancer Drug Screen. Data for tumor model L1210 Leukemia (intraperitoneal) in B6D2F1 (BDF1) mice
Details: higher = longer survival
How it was run: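 Value reflects the ratio of survival in compound-treated mice to survival in vehicle-treated controls, with both groups carrying the same transplanted tumor.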

[1] = endpoint: mean survival time, dose: 6.25 mg/kg/injection, schedule: Q01DX009 (ip), vehicle: saline
[2] = endpoint: mean survival time, dose: 12.5 mg/kg/injection, schedule: Q01DX009 (ip), vehicle: saline
[3] = endpoint: mean survival time, dose: 25.0 mg/kg/injection, schedule: Q01DX009 (ip), vehicle: saline

Compound: O=CC(O)CO (stereo not drawn)
- T/C (endpoint: mean survival time, dose: 62.5 mg/kg/injection, schedule: Q01DX009 (ip), vehicle: carboxymethylcellulose (CMC)): 102 % of control
- T/C (endpoint: mean survival time, dose: 108.0 mg/kg/injection, schedule: Q01DX Z (ip), vehicle: other): 95 % of control
- T/C (endpoint: mean survival time, dose: 125.0 mg/kg/injection, schedule: Q01DX001 (ip), vehicle: carboxymethylcellulose (CMC)): 98 % of control
- T/C (endpoint: mean survival time, dose: 125.0 mg/kg/injection, schedule: Q01DX009 (ip), vehicle: carboxymethylcellulose (CMC)): 116 % of control
- T/C (endpoint: mean survival time, dose: 180.0 mg/kg/injection, schedule: Q01DX Z (ip), vehicle: other): 112 % of control
- T/C (endpoint: mean survival time, dose: 250.0 mg/kg/injection, schedule: Q01DX001 (ip), vehicle: carboxymethylcellulose (CMC)): 105 % of control
- T/C (endpoint: mean survival time, dose: 250.0 mg/kg/injection, schedule: Q01DX009 (ip), vehicle: carboxymethylcellulose (CMC)): 116 % of control
- T/C (endpoint: mean survival time, dose: 300.0 mg/kg/injection, schedule: Q01DX Z (ip), vehicle: other): 113 % of control
- T/C (endpoint: mean survival time, dose: 500.0 mg/kg/injection, schedule: Q01DX001 (ip), vehicle: carboxymethylcellulose (CMC)): 100 % of control
- T/C (endpoint: mean survival time, dose: 500.0 mg/kg/injection, schedule: Q01DX009 (ip), vehicle: carboxymethylcellulose (CMC)): 118 % of control
- T/C (endpoint: mean survival time, dose: 500.0 mg/kg/injection, schedule: Q01DX Z (ip), vehicle: other): 115 % of control
- T/C (endpoint: mean survival time, dose: 833.0 mg/kg/injection, schedule: Q01DX Z (ip), vehicle: other): 114 % of control
- T/C (endpoint: mean survival time, dose: 1000.0 mg/kg/injection, schedule: Q01DX001 (ip), vehicle: carboxymethylcellulose (CMC)): 110 % of control
- T/C (endpoint: median survival time, dose: 352.0 mg/kg/injection, schedule: Q01DX005 (ip), vehicle: saline sonified): 122 % of control
- T/C (endpoint: median survival time, dose: 440.0 mg/kg/injection, schedule: Q01DX005 (ip), vehicle: other): 118 % of control
- T/C (endpoint: median survival time, dose: 440.0 mg/kg/injection, schedule: Q01DX005 (ip), vehicle: saline sonified): 116 % of control
- T/C (endpoint: median survival time, dose: 550.0 mg/kg/injection, schedule: Q01DX005 (ip), vehicle: saline sonified): 122 % of control
- T/C (endpoint: median survival time, dose: 688.0 mg/kg/injection, schedule: Q01DX005 (ip), vehicle: other): 107 % of control
- T/C (endpoint: median survival time, dose: 688.0 mg/kg/injection, schedule: Q01DX005 (ip), vehicle: saline sonified): 111 % of control
- T/C (endpoint: median survival time, dose: 860.0 mg/kg/injection, schedule: Q01DX005 (ip), vehicle: other): 51 % of control
- T/C (endpoint: median survival time, dose: 1053.0 mg/kg/injection, schedule: Q01DX001 (ip), vehicle: other): 119 % of control
- T/C (endpoint: median survival time, dose: 1053.0 mg/kg/injection, schedule: Q01DX001 (ip), vehicle: saline sonified): 122 % of control
- T/C (endpoint: median survival time, dose: 1170.0 mg/kg/injection, schedule: Q01DX001 (ip), vehicle: other): 117 % of control
- T/C (endpoint: median survival time, dose: 1170.0 mg/kg/injection, schedule: Q01DX001 (ip), vehicle: saline sonified): 122 % of control
- T/C (endpoint: median survival time, dose: 1300.0 mg/kg/injection, schedule: Q01DX001 (ip), vehicle: other): 117 % of control
- T/C (endpoint: median survival time, dose: 1300.0 mg/kg/injection, schedule: Q01DX001 (ip), vehicle: saline sonified): 122 % of control
- T/C (endpoint: median survival time, dose: 1444.0 mg/kg/injection, schedule: Q01DX001 (ip), vehicle: other): 121 % of control
- T/C (endpoint: median survival time, dose: 1444.0 mg/kg/injection, schedule: Q01DX001 (ip), vehicle: saline sonified): 122 % of control
- T/C (endpoint: median survival time, dose: 1604.0 mg/kg/injection, schedule: Q01DX001 (ip), vehicle: other): 51 % of control
- T/C (endpoint: median survival time, dose: 1782.0 mg/kg/injection, schedule: Q01DX001 (ip), vehicle: other): 75 % of control

Compound: NC(=O)NC1OC(CO)C(O)C(O)C1O (stereo not drawn)
- T/C (endpoint: mean survival time, dose: 100.0 mg/kg/injection, schedule: Q01DX009 (ip), vehicle: saline): 95 % of control
- T/C (endpoint: mean survival time, dose: 200.0 mg/kg/injection, schedule: Q01DX009 (ip), vehicle: saline): 94 % of control
- T/C (endpoint: mean survival time, dose: 400.0 mg/kg/injection, schedule: Q01DX009 (ip), vehicle: saline): 86 % of control

Compound: CN(C)C(N1CC1)N1CC1
- T/C (endpoint: mean survival time, dose: 10.0 mg/kg/injection, schedule: Q04DX002 (ip), vehicle: saline): 112 % of control
- T/C (endpoint: mean survival time, dose: 20.0 mg/kg/injection, schedule: Q04DX002 (ip), vehicle: saline): 108 % of control
- T/C (endpoint: mean survival time, dose: 40.0 mg/kg/injection, schedule: Q04DX002 (ip), vehicle: saline): 97 % of control

Compound: COc1ccc(C2=NNc3n[nH]c(=S)n3N2)cc1OC
- T/C (endpoint: mean survival time, dose: 50.0 mg/kg/injection, schedule: Q01DX009 (ip), vehicle: Klucel (hydroxypropylcellulose) (HPC)): 96 % of control
- T/C (endpoint: mean survival time, dose: 100.0 mg/kg/injection, schedule: Q01DX009 (ip), vehicle: Klucel (hydroxypropylcellulose) (HPC)): 96 % of control
- T/C (endpoint: mean survival time, dose: 200.0 mg/kg/injection, schedule: Q01DX009 (ip), vehicle: Klucel (hydroxypropylcellulose) (HPC)): 112 % of control

Compound: O=c1[nH]cnc2c1ncn2CCCOc1ccccc1
- T/C (endpoint: mean survival time, dose: 100.0 mg/kg/injection, schedule: Q04DX002 (ip), vehicle: Klucel (hydroxypropylcellulose) (HPC)): 91 % of control
- T/C (endpoint: mean survival time, dose: 200.0 mg/kg/injection, schedule: Q04DX002 (ip), vehicle: Klucel (hydroxypropylcellulose) (HPC)): 88 % of control
- T/C (endpoint: mean survival time, dose: 400.0 mg/kg/injection, schedule: Q04DX002 (ip), vehicle: Klucel (hydroxypropylcellulose) (HPC)): 88 % of control

Compound: CN(C(=S)Nc1ccccc1)c1cc(N2CCCC2)ccn1
- T/C (endpoint: mean survival time, dose: 100.0 mg/kg/injection, schedule: Q01DX001 (ip), vehicle: saline): 98 % of control
- T/C (endpoint: mean survival time, dose: 200.0 mg/kg/injection, schedule: Q01DX001 (ip), vehicle: saline): 98 % of control

Compound: N#Cc1ccc(OCCCCCOc2ccc([N+](=O)[O-])cc2)cc1
- T/C (endpoint: mean survival time, dose: 75.0 mg/kg/injection, schedule: Q01DX009 (ip), vehicle: Klucel (hydroxypropylcellulose) (HPC)): 101 % of control
- T/C (endpoint: mean survival time, dose: 150.0 mg/kg/injection, schedule: Q01DX009 (ip), vehicle: Klucel (hydroxypropylcellulose) (HPC)): 97 % of control
- T/C (endpoint: mean survival time, dose: 300.0 mg/kg/injection, schedule: Q01DX009 (ip), vehicle: Klucel (hydroxypropylcellulose) (HPC)): 100 % of control

Compound: CCCOC(=O)C1(N)CCCC1
- T/C (endpoint: mean survival time, dose: 16.0 mg/kg/injection, schedule: Q01DX Z (ip), vehicle: carboxymethylcellulose (CMC)): 117 % of control
- T/C (endpoint: mean survival time, dose: 31.0 mg/kg/injection, schedule: Q01DX Z (ip), vehicle: carboxymethylcellulose (CMC)): 119 % of control
- T/C (endpoint: mean survival time, dose: 45.0 mg/kg/injection, schedule: Q01DX Z (ip), vehicle: saline): 114 % of control
- T/C (endpoint: mean survival time, dose: 50.0 mg/kg/injection, schedule: Q01DX001 (ip), vehicle: Klucel (hydroxypropylcellulose) (HPC)): 98 % of control
- T/C (endpoint: mean survival time, dose: 50.0 mg/kg/injection, schedule: Q04DX003 (ip), vehicle: Klucel (hydroxypropylcellulose) (HPC)): 103 % of control
- T/C (endpoint: mean survival time, dose: 62.0 mg/kg/injection, schedule: Q01DX Z (ip), vehicle: carboxymethylcellulose (CMC)): 120 % of control
- T/C (endpoint: mean survival time, dose: 100.0 mg/kg/injection, schedule: Q01DX001 (ip), vehicle: Klucel (hydroxypropylcellulose) (HPC)): 106 % of control
- T/C (endpoint: mean survival time, dose: 100.0 mg/kg/injection, schedule: Q01DX Z (ip), vehicle: saline): 121 % of control
- T/C (endpoint: mean survival time, dose: 100.0 mg/kg/injection, schedule: Q04DX003 (ip), vehicle: Klucel (hydroxypropylcellulose) (HPC)): 117 % of control
- T/C (endpoint: mean survival time, dose: 148.0 mg/kg/injection, schedule: Q01DX Z (ip), vehicle: saline): 160 % of control
- T/C (endpoint: mean survival time, dose: 150.0 mg/kg/injection, schedule: Q01DX Z (ip), vehicle: saline): 114 % of control
- T/C (endpoint: mean survival time, dose: 200.0 mg/kg/injection, schedule: Q01DX001 (ip), vehicle: Klucel (hydroxypropylcellulose) (HPC)): 117 % of control and 118 % of control
- T/C (endpoint: mean survival time, dose: 336.0 mg/kg/injection, schedule: Q01DX Z (ip), vehicle: saline): 110 % of control
- T/C (endpoint: mean survival time, dose: 400.0 mg/kg/injection, schedule: Q04DX003 (ip), vehicle: Klucel (hydroxypropylcellulose) (HPC)): 121 % of control
- T/C (endpoint: mean survival time, dose: 500.0 mg/kg/injection, schedule: Q01DX Z (ip), vehicle: carboxymethylcellulose (CMC)): 89 % of control
- T/C (endpoint: mean survival time, dose: 504.0 mg/kg/injection, schedule: Q01DX Z (ip), vehicle: saline): 116 % of control

Compound: CCCC1CCC(=C2C(=O)CCC2=O)O1 (stereo not drawn)
- T/C (endpoint: mean survival time, dose: 3.13 mg/kg/injection, schedule: Q01DX009 (ip), vehicle: saline): 95 % of control
- T/C [1]: 98 % of control
- T/C [2]: 106 % of control
- T/C [3]: 104 % of control

Compound: COC(=O)CCC(=O)Nc1ccccc1
- T/C (endpoint: mean survival time, dose: 100.0 mg/kg/injection, schedule: Q04DX003 (ip), vehicle: saline with Tween-80): 101 % of control
- T/C (endpoint: mean survival time, dose: 200.0 mg/kg/injection, schedule: Q04DX003 (ip), vehicle: saline with Tween-80): 95 % of control
- T/C (endpoint: mean survival time, dose: 400.0 mg/kg/injection, schedule: Q04DX003 (ip), vehicle: saline with Tween-80): 95 % of control

Compound: O=C(C=C(C(F)(F)F)C(F)(F)F)c1cccs1
- T/C (endpoint: mean survival time, dose: 3.12 mg/kg/injection, schedule: Q01DX009 (ip), vehicle: saline): 101 % of control
- T/C [1]: 101 % of control
- T/C [2]: 101 % of control
- T/C (endpoint: mean survival time, dose: 12.5 mg/kg/injection, schedule: Q04DX003 (ip), vehicle: saline): 93 % of control
- T/C [3]: 110 % of control
- T/C (endpoint: mean survival time, dose: 25.0 mg/kg/injection, schedule: Q04DX003 (ip), vehicle: saline): 97 % of control
- T/C (endpoint: mean survival time, dose: 50.0 mg/kg/injection, schedule: Q04DX003 (ip), vehicle: saline): 93 % of control
- T/C (endpoint: mean survival time, dose: 100.0 mg/kg/injection, schedule: Q04DX003 (ip), vehicle: saline): 98 % of control
